# Data as given in patent US12084473B2, “β-D-2′-deoxy-2′-α-fluoro-2′-β-C-substituted-2-modified-N6-substituted purine nucleotides for HCV treatment” (Atea Pharmaceuticals, Inc., priority 2015, dated 2024).
# Read-outs that look alike come from different tables or passages of the source.
# Assays:
# [1] = system: HCV Genotype 4d, NS5B Mutation none; experiment: microbe, parasite or virus in culture; format: cell-based
# Procedure: (§1) Various patient-derived HCV genotypes containing wild-type and resistance-associated variants were used to determine their relative replication sensitivity to test compounds. Replicon resistance test vectors (RTVs) containing the NS5B genomic regions were prepared using viral RNA isolated from plasma of HCV patients. Each NS5B region was amplified by reverse-transcription polymerase chain reaction and cloned into an HCV replicon RTV which was then transferred by electroporation into Huh-7 cells.
# [2] = system: HCV Genotype 3a-2, NS5B Mutation none; experiment: microbe, parasite or virus in culture; format: cell-based
# Procedure: as §1
# [3] = system: HCV Genotype 1b, NS5B Mutation C316N; experiment: microbe, parasite or virus in culture; format: cell-based
# Procedure: as §1
# [4] = system: HCV Genotype 1a, NS5B Mutation L159F; experiment: microbe, parasite or virus in culture; format: cell-based
# Procedure: as §1
# [5] = system: HCV Genotype 1a, NS5B Mutation L159F and S282T; experiment: microbe, parasite or virus in culture; format: cell-based
# Procedure: as §1
# [6] = system: HCV Genotype 2a, NS5B Mutation none; experiment: microbe, parasite or virus in culture; format: cell-based
# Procedure: as §1
# [7] = system: HCV Genotype 1b, NS5B Mutation none; experiment: microbe, parasite or virus in culture; format: cell-based
# Procedure: as §1
# [8] = system: HCV Genotype 2b, NS5B Mutation none; experiment: microbe, parasite or virus in culture; format: cell-based
# Procedure: as §1
# [9] = system: HCV Genotype 1a, NS5B Mutation none; experiment: microbe, parasite or virus in culture; format: cell-based
# Procedure: as §1
# [10] = system: HCV Genotype 3a-1, NS5B Mutation none; experiment: microbe, parasite or virus in culture; format: cell-based
# Procedure: as §1
# [11] = system: HCV Genotype 4a, NS5B Mutation none; experiment: microbe, parasite or virus in culture; format: cell-based
# Procedure: as §1
# Huh-7 luc/neo ET cells = experiment: Cytotoxicity by XTT staining in replicon cells
# Procedure: (§2) The plates were cultured for 24 hours prior to the addition of compounds. Six serial one half log dilutions of the test articles (high test concentration of 100.0 μM or high test concentration of 1.0 μM) and human interferon-alpha2b (high test 10.0 U/ml) were prepared in cell culture medium and added to the cultured cells in triplicate wells for each dilution. Six wells in the test plates received medium alone as an untreated control. Following 72 hours of culture in the presence of compound, one of the plates was used for the determination of cytotoxicity by staining with XTT and the other for antiviral efficacy by determination of luciferase reporter activity. Cytotoxicity and efficacy data were collected and imported into a customized Excel workbook for determination of the TC50 and EC50 values. […] The y-axis is the percent of virus control and the x-axis is the concentration of drug in μM. […] The y-axis is the percent of virus control and the x-axis is the concentration of drug in M.
# [12] = Cytotoxicity by XTT staining in replicon cells; details: human
# Procedure: as §2
# HCV S282T replicon = experiment: microbe, parasite or virus in culture; format: cell-based
# Procedure: A transient transfection assay was performed to determine the sensitivity of the […] of HCV to test compounds. Huh-7 cells were electroporated in the presence of RNA transcribed from wild type or S282T HCV replicon plasmids from the T7 promoter. The transfected cells were seeded in to 96-well plates at 7.5×10^3 cells per well in Dulbecco's Modified Eagle's medium. After 24 hr of incubation, medium was removed and replaced with fresh medium containing no or various concentrations of test compounds. Following an additional 96-hr incubation, the anti-HCV activity was measured by luciferase endpoint with Britelite™ Plus luminescence reporter gene kit (Perkin Elmer, Shelton, CT). Duplicate plates were treated and incubated in parallel for assessment of cellular toxicity by staining with the tetrazolium dye XTT.
# [13] = system: HCV genotype 1b luciferase reporter replicon; experiment: microbe, parasite or virus in culture; format: cell-based
# Procedure: as §2
# [14] = system: HCV genotype 1b luciferase reporter replicon; experiment: microbe, parasite or virus in culture; format: cell-based; details: Hepatitis C virus, HuH-7-Luc/Neo-ET, 72 h, read-out: HCV Replicon EC50/EC95: EC50
# human hepatocytes = experiment: Metabolic studies in primary hepatocytes; format: in vitro ADME; details: 10 μM, 2-24 hr
# Procedure: The metabolism of compounds 25, 27 and 5-2, at a concentration of 10 μM, were investigated in fresh primary cultures of human, dog and mouse hepatocytes. Plated hepatocytes from humans (XenoTech, mixed gender, pooled from 10 donors), male Beagle dog (BioreclamationIVT), and male ICR/CD-1 mice (BioreclamationIVT, 8 donors) in 6-well plates with matrigel overlay were incubated in singlet with 10 μM TA. After 2, 4, 6, 8 or 24 hr, intracellular levels of nucleotide prodrugs and their potential metabolites (prodrugs, monophosphates, triphosphates and nucleosides) were quantitated by LC-MS/MS. Concentrations below the lower limit of quantitation (1.5 pmol/10^6 cells for prodrugs, monophosphates and nucleosides and 12 pmol/10^6 cells for triphosphates) were extrapolated from the standard curves.
# [15] = Hepatitis C virus, 96 h, read-out: IC50 Value
# [16] = Hepatitis C virus, read-out: IC50 Value
# [17] = genotype 3a-2, no NS5B mutation
# [18] = genotype 1a, NS5B L159F and S282T
# [19] = genotype 3a-1, no NS5B mutation
structure (smiles),measurement,setting,value
CNc1nc(N)nc2c1ncn2[C@@H]1OC(CO[P@@](=O)(N[C@@H](C)C(=O)OC(C)C)Oc2ccccc2)[C@@H](O)[C@@]1(C)F (stereo partly drawn) [Compound 5-2],IC50,[1]; [15],14 nM
same,Fold Change in IC50 from Sofosbuvir,"[1]; genotype 4d, no NS5B mutation",6.7
same,Fold Change in IC95 from Sofosbuvir,"[1]; genotype 4d, no NS5B mutation",12.8
same,IC95 Value,"[1]; genotype 4d, no NS5B mutation",79.9 nM
same,IC50,[2]; [16],10.4 nM
same,Fold Change in IC50 from Sofosbuvir,[2]; [17],11.9
same,Fold Change in IC95 from Sofosbuvir,[2]; [17],14.3
same,IC95 Value,[2]; [17],56.5 nM
same,cross-resistance to C316N mutant,[3],"neither 25, 27 nor 5-2 compound showed any evidence of cross-resistance"
same,IC50,[3]; [16],7.7 nM
same,Fold Change in IC50 from Sofosbuvir,"[3]; genotype 1b, NS5B C316N",9.6
same,Fold Change in IC95 from Sofosbuvir,"[3]; genotype 1b, NS5B C316N",11.1
same,IC95 Value,"[3]; genotype 1b, NS5B C316N",42.7 nM
same,cross-resistance to L159F mutant,[4],"neither 25, 27 nor 5-2 compound showed any evidence of cross-resistance"
same,IC50,[4]; [16],13 nM
same,Fold Change in IC50 from Sofosbuvir,"[4]; genotype 1a, NS5B L159F",8.8
same,Fold Change in IC95 from Sofosbuvir,"[4]; genotype 1a, NS5B L159F",11.2
same,IC95 Value,"[4]; genotype 1a, NS5B L159F",95.3 nM
same,cross-resistance to L159F and S282T mutant,[5],"neither 25, 27 nor 5-2 compound showed any evidence of cross-resistance"
same,IC50,[5]; [16],38.7 nM
same,Fold Change in IC50 from Sofosbuvir,[5]; [18],41.9
same,Fold Change in IC95 from Sofosbuvir,[5]; [18],54.1
same,IC95 Value,[5]; [18],313.5 nM
same,IC50,[6]; [16],6.2 nM
same,Fold Change in IC50 from Sofosbuvir,"[6]; genotype 2a, no NS5B mutation",3.6
same,Fold Change in IC95 from Sofosbuvir,"[6]; genotype 2a, no NS5B mutation",4.3
same,IC95 Value,"[6]; genotype 2a, no NS5B mutation",45.4 nM
same,IC50,[7]; [16],10.6 nM
same,Fold Change in IC50 from Sofosbuvir,"[7]; genotype 1b, no NS5B mutation",0.8
same,Fold Change in IC95 from Sofosbuvir,"[7]; genotype 1b, no NS5B mutation",8.9
same,IC95 Value,"[7]; genotype 1b, no NS5B mutation",72.4 nM
same,IC50,[8]; [16],6.3 nM
same,Fold Change in IC50 from Sofosbuvir,"[8]; genotype 2b, no NS5B mutation",7.1
same,Fold Change in IC95 from Sofosbuvir,"[8]; genotype 2b, no NS5B mutation",9.1
same,IC95 Value,"[8]; genotype 2b, no NS5B mutation",32.5 nM
same,IC50,[9]; [16],10.5 nM
same,Fold Change in IC50 from Sofosbuvir,"[9]; genotype 1a, no NS5B mutation",6.0
same,Fold Change in IC95 from Sofosbuvir,"[9]; genotype 1a, no NS5B mutation",8.4
same,IC95 Value,"[9]; genotype 1a, no NS5B mutation",60.8 nM
same,IC50,[10]; [16],11.8 nM
same,Fold Change in IC50 from Sofosbuvir,[10]; [19],10.7
same,Fold Change in IC95 from Sofosbuvir,[10]; [19],11.6
same,IC95 Value,[10]; [19],59.3 nM
same,IC50,[11]; [16],9.9 nM
same,Fold Change in IC50 from Sofosbuvir,"[11]; genotype 4a, no NS5B mutation",7.5
same,Fold Change in IC95 from Sofosbuvir,"[11]; genotype 4a, no NS5B mutation",9.2
same,IC95 Value,"[11]; genotype 4a, no NS5B mutation",74.4 nM
same,TC50,Huh-7 luc/neo ET cells,greater than one hundred
same,CC50 at 72 h,[12],> 100000 nM
same,cross-resistance to S282T variant,HCV S282T replicon,"neither 25, 27, nor 5-2 compounds showed any evidence of cross-resistance"
same,IC50,HCV S282T replicon; [15],2.8 nM
same,Fold Change in IC50 from Sofosbuvir,HCV S282T replicon; NS5B Mutation S282T,99.3
same,Fold Change in IC95 from Sofosbuvir,HCV S282T replicon; NS5B Mutation S282T,<48.5
same,IC95 Value,"HCV S282T replicon; NS5B Mutation S282T, transient assay, 96-hr",20.6 nM
same,fold increase in activity (versus parent nucleoside),[13],"≥ 3,900"
same,EC95,"[13]; Hepatitis C virus, Huh-7 luc/neo ET cells, 72 hours, luciferase, read-out: HCV Replicon EC50/EC95: EC95",28 nM
same,EC50,"[13]; Hepatitis C virus, read-out: EC50 in a replicon assay",4 nM
same,Fold increase in activity compared to parent nucleoside,[13]; Table 7,">3,900"
same,EC50,[14],4 nM
same,predominant metabolite observed in cultured human hepatocytes,human hepatocytes,β-D-2′-deoxy-2′-α-fluoro-2′-β-methyl-guanine triphosphate
